Measurements reported in patent US8703821B2, “Dialkyl ether delivery agents” (Emisphere Technologies Inc., priority 2006, dated 2014).

How the values were obtained:
[1] = Insulin oral delivery in rats; format: in vivo, rat; settings: oral gavage to fasted male Sprague-Dawley rats; dosing solution delivery agent 200 mg/ml + human recombinant insulin 0.5 mg/ml
[2] = Heparin (LMWH) oral delivery in rats, plasma LMWH by anti-Factor Xa assay; format: in vivo, rat; settings: male Sprague-Dawley rats, delivery agent 300 mg/kg, LMWH 100 IU/kg, volume 3 ml/kg, 25% aqueous propylene glycol
Method: Oral dosing solutions containing delivery agent compound and heparin sodium USP were prepared in 25% aqueous propylene glycol. Either the sodium salt of the delivery agent compound was used or the free acid was converted to the sodium salt with one equivalent of sodium hydroxide. The delivery agent compound and heparin (about 166-182 IU/mg) were mixed by vortex as dry powders. This dry mixture was dissolved in 25% v/v aqueous propylene glycol, vortexed, and placed in a sonicator (about 37° C.). The pH was adjusted to about 7 (6.5-8.5) with aqueous NaOH (2N). The dosing solution was sonicated to produce a clear solution. The final volume was adjusted to about 3.0 ml.
Male Sprague-Dawley rats were fasted for 24 hours and anesthetized with ketamine hydrochloride (88 mg/kg) intramuscularly immediately prior to dosing and again as needed to maintain anesthesia. A dosing group of five animals were administered one of the dosing solutions. An 11 cm Rusch 8 French catheter was adapted to a 1 ml syringe with a pipette tip. […]
Citrated blood samples were collected by cardiac puncture following the administration of ketamine (88 mg/kg), typically at 0.25, 0.5, 1.0 and 1.5 hours after dosing. […] LMWH absorption was verified by an increase in plasma LMWH measured by the anti-Factor Xa assay CHROMOSTRATE™ Heparin anti-Xa assay (available from Organon Teknika Corporation, Durham, N.C.).

Cc1ccccc1CCOCC(=O)O [Compound 1, (2-o-Tolyl-ethoxy)-acetic acid]
% Glucose Cmin (Rat) [1]: −36.5%

Cc1ccc(CCOCC(=O)O)cc1 [Compound 2]
melting point: 50 to 52 °C
% Glucose Cmin (Rat) [1]: −54.3%

Cc1cccc(CCOCC(=O)O)c1 [Compound 3, Sodium (2-m-Tolyl-ethoxy)-acetate]
% Glucose Cmin (Rat) [1]: −30.1%

O=C(O)COCCc1ccc(Cl)cc1 [Compound 4]
melting point: 51 to 52 °C
% Glucose Cmin (Rat) [1]: −54.3%

O=C(O)COCCc1ccccc1Cl [Compound 5]
% Glucose Cmin (Rat) [1]: −39.7%

O=C(O)COCCc1cccc(Cl)c1 [Compound 6]
% Glucose Cmin (Rat) [1]: −20.9%

O=C(O)COCCc1ccc(F)cc1 [Compound 7]
melting point: 67 to 68 °C
% Glucose Cmin (Rat) [1]: −41.9%

O=C(O)COCCc1ccccc1F [Compound 8]
% Glucose Cmin (Rat) [1]: −33.5%

O=C(O)COCCc1cccc(F)c1 [Compound 9]
melting point: 36 to 37 °C
% Glucose Cmin (Rat) [1]: −29.3%

Cc1ccc(COCC(=O)O)cc1 [Compound 10]
melting point: 44 to 45 °C
% Glucose Cmin (Rat) [1]: −46.6%

Cc1cccc(COCC(=O)O)c1 [Compound 11]
% Glucose Cmin (Rat) [1]: −23.7%

O=C(O)COCc1ccc(Cl)cc1 [Compound 13]
% Glucose Cmin (Rat) [1]: −45.3%

O=C(O)COCc1cccc(Cl)c1 [Compound 14]
% Glucose Cmin (Rat) [1]: −35.3%

O=C(O)COCc1ccccc1Cl [Compound 15]
% Glucose Cmin (Rat) [1]: −39.9%

O=C(O)COCc1ccc(F)cc1 [Compound 16]
% Glucose Cmin (Rat) [1]: −18.1%

O=C(O)COCc1cccc(F)c1 [Compound 17]
% Glucose Cmin (Rat) [1]: −17.6%

O=C(O)COCc1ccccc1F [Compound 18]
% Glucose Cmin (Rat) [1]: −14.6%

Cc1cc(C)c(COCC(=O)O)c(C)c1 [Compound 19, (2,4,6-Trimethyl-benzyloxy)-acetic acid]
melting point: 81 to 83 °C
% Glucose Cmin (Rat) [1]: −27.5%

Cc1cc(C)c(C)c(COCC(=O)O)c1C [Compound 20]
melting point: 103 to 105 °C

Cc1ccc(C)c(COCC(=O)O)c1 [Compound 21]
melting point: 74 to 75 °C
% Glucose Cmin (Rat) [1]: −35.0%

Cc1ccc(COCC(=O)O)c(C)c1 [Compound 22]
melting point: 54 to 56 °C

Cc1ccc(COCC(=O)O)cc1Cl [Compound 23]
melting point: 53 to 54 °C
% Glucose Cmin (Rat) [1]: −5.5%

Cc1ccc(C)c(CCOCC(=O)O)c1 [Compound 24]
melting point: 42 to 43 °C
% Glucose Cmin (Rat) [1]: −24.7%

Cc1cc(C)cc(CCOCC(=O)O)c1 [Compound 25]
melting point: 50 to 51 °C
% Glucose Cmin (Rat) [1]: −4.6%

O=C(O)COCCCCc1ccccc1 [Compound 26]
% Glucose Cmin (Rat) [1]: −21.0%

O=C(O)COCCc1ccccc1C(F)(F)F [Compound 27]
% Glucose Cmin (Rat) [1]: −11.3%

COc1ccc(CCCCOCC(=O)O)cc1 [Compound 28]
% Glucose Cmin (Rat) [1]: −10.6%

COc1ccc(CCCOCC(=O)O)cc1 [Compound 29]
% Glucose Cmin (Rat) [1]: −36.3%

Cc1ccc(CCCOCC(=O)O)cc1 [Compound 30]
% Glucose Cmin (Rat) [1]: −19.5%

Cc1ccccc1CCCOCC(=O)O [Compound 31]
% Glucose Cmin (Rat) [1]: −6.1%

O=C(O)COCCCCCc1ccccc1 [Compound 32]
% Glucose Cmin (Rat) [1]: −15.1%

COc1ccc(CCOCC(=O)O)cc1 [Compound 33]
% Glucose Cmin (Rat) [1]: −9.8%

O=C(O)COCCc1ccccc1 [Compound 34]
% Glucose Cmin (Rat) [1]: −32.2%

O=C(O)COCCCc1ccccc1 [Compound 35]
% Glucose Cmin (Rat) [1]: −26.1%

COc1ccccc1CCOCC(=O)O [Compound 36]
% Glucose Cmin (Rat) [1]: −4.4%

O=C(O)COCCc1ccc(F)cc1Cl [Compound 37]
% Glucose Cmin (Rat) [1]: −30.0%

O=C(O)COCCc1ccc(Br)cc1 [Compound 39]
% Glucose Cmin (Rat) [1]: −31.6%

O=C(O)COC1Cc2ccccc2C1 [Compound 40]
% Glucose Cmin (Rat) [1]: −15.8%

O=C(O)COC1CCc2ccccc21 (stereo not drawn) [Compound 41]
% Glucose Cmin (Rat) [1]: −27.8%

O=C(O)COCCCc1ccc(Cl)cc1 [Compound 42]
% Glucose Cmin (Rat) [1]: −20.4%

O=C([O-])CCCCCCCNC(=O)c1ccccc1O.[Na+] [Delivery Agent A, monosodium salt of N-(8-[2-hydroxybenzoyl]-amino)caprylic acid]
Mean Peak Plasma LMWH Concentration (IU/ml) ± SD [2]: 0.984 IU/ml
